Assay results taken from ChEMBL document CHEMBL3988442, “University of Dundee, Small-Polar-MMV Screening Library” (2021).

Molecular target: ClpP1P2 (Mycobacterium tuberculosis (strain ATCC 25618 / H37Rv), UniProt P9WPC3+P9WPC5)
Test: in vitro assay to detect presence of AMC directly proportional to the activity of ClpP1P2. GHDDI collaboration.
Assay type: functional

ClpP1P2, sequence (P9WPC5 whole entry): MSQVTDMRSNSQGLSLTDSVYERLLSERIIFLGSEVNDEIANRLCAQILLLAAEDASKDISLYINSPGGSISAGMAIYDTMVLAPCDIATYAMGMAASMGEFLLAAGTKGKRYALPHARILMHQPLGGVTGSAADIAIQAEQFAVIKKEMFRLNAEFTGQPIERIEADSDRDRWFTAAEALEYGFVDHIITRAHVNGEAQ
ClpP1P2, sequence (P9WPC3 whole entry): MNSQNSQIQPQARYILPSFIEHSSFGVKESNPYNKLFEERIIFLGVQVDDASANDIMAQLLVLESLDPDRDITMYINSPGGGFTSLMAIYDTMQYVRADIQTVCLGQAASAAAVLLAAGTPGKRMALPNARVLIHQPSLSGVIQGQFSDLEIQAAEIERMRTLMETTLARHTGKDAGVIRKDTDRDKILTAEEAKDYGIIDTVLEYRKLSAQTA

Structure (SMILES)	IC50 [µM]
Cc1nc2oc(C(=O)N3CCOCC3)c(N)c2c2c1CCCC2	> 100
CN(Cc1ccsc1)C(=O)Nc1ccc(N2CCCC2)nc1	> 100
CC(Cn1cccn1)NC(=O)NCc1ccoc1 (stereo unspecified)	> 100
CC(c1ccco1)N(C)Cc1cc2cc3c(cc2[nH]c1=O)OCO3 (stereo unspecified)	> 100
CCN1CCCC1CNCc1cc2cc(OC)c(OC)cc2[nH]c1=O (stereo unspecified)	> 100
CCN(CC)c1ccc(NS(=O)(=O)c2cnn(C(C)C)c2)cn1	> 100
CCOc1ccc2[nH]c(=O)c(CN3CCCC(CO)(CO)C3)cc2c1	> 100
c1ccc(-n2cc(CN3CCCC3Cn3cccn3)nn2)cc1 (stereo unspecified)	> 100
CC(C)n1cnc(-c2nc(C(=O)NC3CC3)c3ccccn23)c1	> 100
O=C(c1cc(-c2ccco2)nc2c(Cl)cccc12)N1CC[C@H]2CNC[C@H]21	> 100
Cc1cnn(CCNc2cnc3ccccc3n2)c1	> 100
Cc1ccc(NC2CCN(C(=O)c3ccoc3C)CC2)nn1	> 100
Cn1ccc2c(-c3cc(N)nc(N4CCOCC4)n3)ccnc21	> 100
N#Cc1cccnc1N1CCC(C2CCCCCN2C(=O)C2CC2)CC1 (stereo unspecified)	> 100
Cn1cc(CN2CCCCC2c2ccc(-c3cccc(F)c3)nc2)cn1 (stereo unspecified)	> 100
O=C(c1nc(=O)[nH]c2ccccc12)N1CCCC(CC2CC2)(C(=O)O)C1 (stereo unspecified)	> 100
Cc1nc(-c2cc(C(=O)NCCN3CCOCC3)c3ccccn23)cs1	> 100
Cc1cc(NCC(=O)N(C)Cc2cccs2)c(C(N)=O)cc1F	> 100
O=C1CN(Cc2ccc3ccccc3n2)CCN1C1CCCC1	> 100
CCc1ncc2c(n1)CN(C(C)C(=O)Nc1ccc(Cl)cn1)CC2 (stereo unspecified)	> 100
O=C1CCc2cc(NC(=O)C3CCCN3c3nccs3)ccc2N1 (stereo unspecified)	> 100
CCN(CC1CCOC1)C(=O)Nc1ccc(OC)nc1 (stereo unspecified)	> 100
CC(C)n1c2ccccc2c2c1cc(C(=O)N(C)C)n2C(=O)N(C)C	> 100
COc1cccc(OCCNS(=O)(=O)Cc2ccccc2)c1	> 100
c1ccc2nc(N3CCCC3c3nnc4n3CCCCC4)cnc2c1 (stereo unspecified)	> 100

Structure (SMILES)	IC50 [µM]
OCCNc1nc(NCCc2ccccc2)nc2nccnc12	> 100
CC(C)c1ncc2c(n1)CN(Cc1nnc(Cc3ccccc3)o1)CC2	> 100
COc1cccc2ccc(N3CCC(O)(c4ccc(C)cn4)CC3)nc12	> 100
Cn1ncc(N2CCOC(CCNC(=O)CO)C2)cc1=O (stereo unspecified)	> 100
CC(C)c1nc2c(n1C)CCN(CC(=O)Nc1cccnc1)C2	> 100
c1ccc2nc(N3CCOC(Cn4cccn4)C3)cnc2c1 (stereo unspecified)	> 100
CCOc1ccccc1CC(=O)N1C[C@@H](C(=O)O)[C@H](c2ccncc2)C1	> 100
CC(C)=CCN1CCc2onc(-c3ccc(F)c(F)c3)c2C1	> 100
COCCN1CCC(CNc2cnc3ccccc3n2)CC1	> 100
Cc1noc(CN(CCc2cccs2)Cc2cccc(C#N)c2)n1	> 100
COc1ccc2c(c1OC)Cc1c-2nc(N)c(C#N)c1C1CCOC1 (stereo unspecified)	> 100
CC1Cn2c(nc3c2c(=O)[nH]c(=O)n3C)O1 (stereo unspecified)	> 100
Cc1cnn(CC2CCCN2C(=O)CCc2ccncc2)c1 (stereo unspecified)	> 100
CC(=O)N1CCc2[nH]cnc2C1C1=CCCN(CCn2cccc2)C1 (stereo unspecified)	> 100
CN(C)c1cc(C(F)(F)F)cc(-c2ccc(C(=O)O)cc2)n1	> 100
CN(C)CC1CN(c2cnc3ccccc3n2)CCO1 (stereo unspecified)	> 100
O=C(NCCCn1cccn1)NCC(c1ccco1)N1CCCC1 (stereo unspecified)	> 100
CN(Cc1ccccc1C#N)C1CCN(CCc2ccccn2)CC1	> 100
CCCNC(=O)c1cc(-c2ccn(C(C)C)n2)n2ccccc12	> 100
N#Cc1cccc(N2CCCC3(CCC(=O)N(C4CCCC4)C3)C2)n1 (stereo unspecified)	> 100
O=C(NCCCO)c1cc(-c2cc[nH]n2)n2ccccc12	> 100
CCc1nnc2n1CCN(C(=O)c1ccc(-c3ccco3)[nH]c1=O)C2	> 100
COCc1cccc(CNCc2c(C)nn(C)c2N2CCOCC2)c1	> 100
Cc1ccnc(NCCCN2CCc3ccccc32)n1	> 100
c1cc(CN2CCC(c3ccnc4nccn34)C2)ccn1 (stereo unspecified)	> 100

Structure (SMILES)	IC50 [µM]
CC(C)n1cnc(-c2nc(C(=O)N3CCN(C)CC3)c3ccccn23)c1	> 100
O[C@@H]1C[C@H]2CN(Cc3ccccc3Cl)[C@H](Cc3ccccc3)CN2C1	> 100
CCc1nccn1-c1cccc(C2CCCN2)n1 (stereo unspecified)	> 100
CC1CN(C(=O)CN(Cc2ccco2)Cc2cccs2)CCO1 (stereo unspecified)	> 100
CN1C(=O)c2cccc(NC(=O)c3ccc4c(c3)OCCO4)c2C1=O	> 100
Cc1nn(C)c(C)c1C(=O)NCc1cc(N(C)C)nc2ccccc12	> 100
CN(C)c1nc2sc(C(=O)N3CCNC(=O)CC3)cc2s1	> 100
CCN(CC)c1nc(C)cc(C(=O)Nc2cccc(C(N)=O)c2)n1	> 100
Cc1cc(C)n(-c2cncc(NCCNC(=O)C3CCCC3)n2)n1	> 100
Cc1cccc(CN(C(=O)NCc2ccccn2)C2CC2)c1	> 100
c1coc(-c2noc(CN3CCc4cncnc4C3)n2)c1	> 100
Cc1csc2ncc(-c3ccnc(N4CCCC[C@@H]4CO)n3)c(=O)n12	> 100
Cc1ncsc1CCC(=O)NC1CCN(c2ncccc2C#N)CC1	> 100
COc1cc(OC)c2nc(NCCN3CCNC3=O)cc(C)c2c1	> 100
O=C1NC2(CCN(CC(=O)N3CCOCC3)CC2)Nc2ccccc21	> 100
CCC(C)NC(=O)c1ccc(-c2ccco2)[nH]c1=O (stereo unspecified)	> 100
O=C(N1CCCC(n2cncn2)C1)C1(c2ccc(Cl)cc2)CCC1 (stereo unspecified)	> 100
Cc1nn2c(N3CCCC(C(N)=O)C3)cc(-c3ccccc3)nc2c1C (stereo unspecified)	> 100
N#Cc1ccccc1N1CCCN(C(=O)CCc2ccsc2)CC1	> 100
CCN1CCCC1CNCc1cc2cc3c(cc2[nH]c1=O)OCCO3 (stereo unspecified)	> 100
Cc1ccc(C#N)c(N2CCC3(CCC(=O)N(CC(N)=O)C3)CC2)n1	> 100
COc1ccc2c(c1)Cc1c-2nc(N)c(C#N)c1C1CCOC1 (stereo unspecified)	> 100
NC(=O)C1CCN(c2nc3nccc(-c4ccncc4)c3c(=O)[nH]2)CC1	> 100
Cc1cnn(CC2CCCCN2C(=O)c2nccnc2N)c1 (stereo unspecified)	> 100
COCC(=O)N1CCC(c2cc3nc(C)cc(C(F)(F)F)n3n2)CC1	> 100

Structure (SMILES)	IC50 [µM]
CC(C)(C)OC(=O)NCCNC(=O)c1ccc(-c2ccco2)[nH]c1=O	> 100
O=C1NC2(CCN(CC(=O)N3CCOCC3)CC2)Nc2ccc(Br)cc21	> 100
COc1ccccc1-c1nc(C(=O)N2CCOCC2)n2ccncc12	> 100
CCN(CC(C)C#N)C(=O)CNc1cc(Cl)ccc1C(N)=O (stereo unspecified)	> 100
CCCNC(=O)c1ccc(-c2ccco2)[nH]c1=O	> 100
CN(C)C1CCN(C(=O)c2cc(-c3ccn(C)n3)n3ccccc23)CC1	> 100
O=C1C(Nc2ccc3nccnc3n2)CCN1c1ccccc1 (stereo unspecified)	> 100
Cc1cc(C)n(CCNCc2cc(-c3ccccc3)c[nH]c2=O)n1	> 100
O=C1CC(Nc2ccc3nccnc3n2)CN1c1ccccc1 (stereo unspecified)	> 100
O=C(c1c2c(N3CCCC3)ncnc2n2ccccc12)N1CCOCC1	> 100
CSc1nccn1-c1ccc(C(=O)NCC2CC2)cc1	> 100
O[C@@H]1C[C@H]2CN(Cc3ccccc3)[C@H](Cc3ccccc3)CN2C1	> 100
NC(=O)CN1CCC(c2cc(C(F)(F)F)n3ccnc3n2)CC1	> 100
Cc1noc(C2CCN(C(=O)CCc3nccs3)CC2)n1	> 100
Cc1nc(-c2nc(C(=O)NC3CC3)c3ccccn23)cn1C(C)C	> 100
Cn1c(CS(=O)(=O)c2ccc(Cl)cc2)cc(=O)n(C)c1=O	> 100
Cc1ccc(CN2C[C@@H]3[C@@H](C(=O)N4CCCC4)CCS(=O)(=O)[C@@H]3C2)cc1	> 100
CC1CN(C(=O)CN(Cc2ccccc2)C2CC2)CCO1 (stereo unspecified)	> 100
CN1CCc2c(C#N)c(NCc3ccncc3)n3cnnc3c2C1	> 100
COc1cc2ccccc2cc1C(=O)N1CCCC(c2nncn2C)C1 (stereo unspecified)	> 100
Cc1cc(C)n(-c2cncc(NCCNC(=O)C(C)C)n2)n1	> 100
CCN(CC)c1ccc(NS(=O)(=O)c2cnn(CC)c2)cn1	> 100
CC(C)(C)c1ccc(OCC(=O)O)c(CN2C[C@H]3C[C@H](O)C[C@H]3C2)c1	> 100
O=C(NCc1nn(-c2ccccc2)c2c1CCC2)NCC1COCCO1 (stereo unspecified)	> 100
Cn1c(Cn2ccnc2)nnc1C1CCN(C(=O)c2cccnc2)CC1	> 100

Structure (SMILES)	IC50 [µM]
O=C(NCCC(=O)N1CCCc2ccccc21)c1ccc(F)cc1F	> 100
CNc1cncc(C2CCN(C(=O)c3coc(C)n3)CC2)n1	> 100
Cc1ccc(S(=O)(=O)N2CCOc3ccccc32)cc1C(N)=O	> 100
CCOCc1ccc(CNc2cncc(-n3cccn3)n2)cc1	> 100
COc1ncc(NCc2ccc(F)cc2)cc1C(N)=O	> 100
Cc1nc(C(=O)N(CC(=O)N(C)C)CC(F)(F)F)c2ccccn12	> 100
CCN1CCCC1CNCc1cc2cc(OC)ccc2[nH]c1=O (stereo unspecified)	> 100
O=C(c1nc(=O)[nH]c2ccccc12)N1CCCC2(CCNC2)C1 (stereo unspecified)	> 100
COc1ccccc1Cc1cncc(N2CC(C(=O)O)C2)n1	> 100
CN(C)c1cc(CNC(=O)Nc2ccc(N3CCCC3)nc2)ccn1	> 100
Cc1ccc2[nH]c(=O)cc(C(=O)N[C@@H]3C[C@@H](CO)N(C)C3)c2c1	> 100
Cc1n[nH]c(=O)c2c(NC(=O)CN3CCC(O)CC3)oc(C)c12	> 100
CCc1nc(C2CCCN2C(=O)CCCn2cncn2)no1 (stereo unspecified)	> 100
CCOC(=O)C1(Cc2ccc(Cl)cc2)CCN(Cc2ncc[nH]2)CC1	> 100
CC(C)n1cnc(-c2nc(C(=O)N3CCCC3)c3ccccn23)c1	> 100
Cc1nc2ccccc2nc1NCc1cccc(OCC2CCCO2)c1 (stereo unspecified)	> 100
Cc1nc(N2CCCC2C(=O)NCc2ccsc2)nc2ccccc12 (stereo unspecified)	> 100
COCC(C)N1CCc2onc(-c3ccc(F)c(F)c3)c2C1 (stereo unspecified)	> 100
CCc1ccc(S(=O)(=O)N2CCCC3(CCCN3S(C)(=O)=O)C2)cc1 (stereo unspecified)	> 100
CCCn1[nH]cc/c1=N\C(=O)CN1CCc2cnc(C(C)C)nc2C1	> 100
CC(Cn1cccn1)NC(=O)N1CCN(Cc2ccsc2)CC1 (stereo unspecified)	> 100
